Measured values as given in US20250136606A1, “MODULATORS OF TRPML, THEIR COMPOSITIONS AND METHODS OF USE” (Caraway Therapeutics, Inc., priority 2021, published 2025).
pEC50: −log10 of the molar value.

Tests used:
Type in all cases: cell-based
Conditions in all cases: fluorescent calcium assay
[1] = biological target: TRPML1 (Homo sapiens, UniProt Q9GZU1); assay: Fluorescent TRPML1 assay (Fluo4-AM calcium fluorescence in doxycycline-induced HEK-293 Trex cells)
Method in brief: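 hTRPML1 (mutated for cell-surface expression) in HEK-293 Trex, dox 0.5 ug/mL o/n; Fluo4-AM 1 uM ~60 min, then ~60 min de-esterification, dark; modified Ringer's + 10 mM Ca. Cmpds 20 uM–6 nM final, half-log, n=3. Ex480/Em540; % activity vs ctrls; EC50 by nonlinear regression.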

[2] = biological target: T1, TRPML3 (Homo sapiens, UniProt Q8TDD5); assay: Fluorescent TRPML3 assay (performed as for TRPML1, substituting the TRPML3 subtype)
T1 construct: expressed in transfected cells
T1 sequence (Q8TDD5 1-553): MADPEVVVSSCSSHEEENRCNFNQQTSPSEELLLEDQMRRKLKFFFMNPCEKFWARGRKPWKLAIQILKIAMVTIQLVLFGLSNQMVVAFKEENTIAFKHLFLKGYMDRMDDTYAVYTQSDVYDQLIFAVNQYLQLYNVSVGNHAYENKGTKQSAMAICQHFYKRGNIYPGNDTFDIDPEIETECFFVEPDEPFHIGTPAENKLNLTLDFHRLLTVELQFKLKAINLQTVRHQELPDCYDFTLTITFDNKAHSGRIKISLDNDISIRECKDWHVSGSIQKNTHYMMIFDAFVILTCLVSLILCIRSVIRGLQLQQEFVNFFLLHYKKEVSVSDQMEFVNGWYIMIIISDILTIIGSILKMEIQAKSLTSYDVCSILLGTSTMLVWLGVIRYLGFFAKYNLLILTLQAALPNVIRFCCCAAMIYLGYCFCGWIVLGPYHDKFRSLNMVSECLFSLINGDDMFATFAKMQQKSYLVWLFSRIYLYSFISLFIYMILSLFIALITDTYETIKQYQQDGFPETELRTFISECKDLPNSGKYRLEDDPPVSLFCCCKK
Method in brief: (§1)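 HEK-293 Trex cells with doxycycline-induced (0.5 ug/mL) surface-directed human TRPML subtype, loaded with 1 μM Fluo4-AM, resuspended in Ringer's with 10 mM calcium. Compounds at 20 μM to 6 nM final in half-log steps, triplicate; fluorescence ex 480/em 540; EC50 by non-linear regression versus plate controls.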

[3] = biological target: T2, TRPML2 (Homo sapiens, UniProt Q8IZK6); assay: Fluorescent TRPML2 assay (performed as for TRPML1, substituting the TRPML2 subtype)
T2 construct: expressed in transfected cells
T2 sequence (Q8IZK6 1-566): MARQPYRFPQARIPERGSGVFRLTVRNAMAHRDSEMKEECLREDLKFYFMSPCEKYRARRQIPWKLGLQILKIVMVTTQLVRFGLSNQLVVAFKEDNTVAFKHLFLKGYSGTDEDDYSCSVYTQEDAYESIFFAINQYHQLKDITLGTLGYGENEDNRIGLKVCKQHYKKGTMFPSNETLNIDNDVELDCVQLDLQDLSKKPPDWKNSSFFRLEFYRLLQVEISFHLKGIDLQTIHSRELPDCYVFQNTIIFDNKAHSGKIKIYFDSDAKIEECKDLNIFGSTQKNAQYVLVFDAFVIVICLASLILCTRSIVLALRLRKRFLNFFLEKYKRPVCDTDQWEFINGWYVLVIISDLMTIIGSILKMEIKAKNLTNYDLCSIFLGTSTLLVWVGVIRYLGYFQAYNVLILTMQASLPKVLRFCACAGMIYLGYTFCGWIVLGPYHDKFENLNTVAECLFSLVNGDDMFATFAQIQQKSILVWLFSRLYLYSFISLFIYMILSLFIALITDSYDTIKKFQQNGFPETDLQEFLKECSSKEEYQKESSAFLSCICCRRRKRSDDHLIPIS
Method in brief: as §1

Chain of TRPML1 (Q9GZU1 whole entry L15A/L16A/L577A/L578A, form open): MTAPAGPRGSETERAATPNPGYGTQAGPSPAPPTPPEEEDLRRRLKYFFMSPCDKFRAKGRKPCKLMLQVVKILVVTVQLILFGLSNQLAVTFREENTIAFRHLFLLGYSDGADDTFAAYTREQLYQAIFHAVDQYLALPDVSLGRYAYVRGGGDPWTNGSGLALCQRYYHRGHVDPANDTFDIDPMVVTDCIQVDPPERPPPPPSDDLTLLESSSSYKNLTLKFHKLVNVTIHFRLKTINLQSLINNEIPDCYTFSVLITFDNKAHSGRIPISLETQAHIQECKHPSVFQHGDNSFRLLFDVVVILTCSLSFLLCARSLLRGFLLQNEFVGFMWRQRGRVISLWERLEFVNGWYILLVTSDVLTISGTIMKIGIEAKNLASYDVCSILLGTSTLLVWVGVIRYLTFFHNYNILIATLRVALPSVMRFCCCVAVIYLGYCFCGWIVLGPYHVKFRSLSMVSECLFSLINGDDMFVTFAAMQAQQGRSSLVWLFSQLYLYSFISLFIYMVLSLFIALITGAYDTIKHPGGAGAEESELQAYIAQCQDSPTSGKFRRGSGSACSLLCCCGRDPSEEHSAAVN

pEC50 [1] | pEC50 [2] | pEC50 [3] | SMILES
5.70 to 6.30 | 6.30 to 7.00 | 5.70 to 6.30 | Cc1nccnc1-c1cn(-c2cc(F)cc(F)c2)c2ncnc(N3CCN(C(=O)OC(C)(C)C)C[C@@H]3C)c12 [Compound 246, tert-butyl (S)-4-(7-(3,5-difluorophenyl)-5-(3-methylpyrazin-2-yl)-7H-pyrrolo[2,3-d]pyrimidin-4-yl)-3-methylpiperazine-1-carboxylate]
5.70 to 6.30 | 6.30 to 7.00 | 5.70 to 6.30 | Cc1nccnc1-c1cn(-c2cc(F)cc(F)c2)c2ncnc(N3CCN(C(=O)OC(C)(C)C(F)(F)F)C[C@@H]3C)c12 [Compound 247, 1,1,1-trifluoro-2-methylpropan-2-yl (S)-4-(7-(3,5-difluorophenyl)-5-(3-methylpyrazin-2-yl)-7H-pyrrolo[2,3-d]pyrimidin-4-yl)-3-methylpiperazine-1-carboxylate]
5.70 to 6.30 | 5.70 to 6.30 | < 5.70 | Cc1nccnc1-c1cn(-c2cc(F)cc(F)c2)c2ncnc(N3CCN(C(=O)OC(C)(C)CF)C[C@@H]3C)c12 [Compound 248, 1-fluoro-2-methylpropan-2-yl (S)-4-(7-(3,5-difluorophenyl)-5-(3-methylpyrazin-2-yl)-7H-pyrrolo[2,3-d]pyrimidin-4-yl)-3-methylpiperazine-1-carboxylate]
< 5.70 | 5.70 to 6.30 | < 5.70 | Cc1nccnc1-c1cn(-c2cc(F)cc(F)c2)c2ncnc(N3CCN(C(=O)OC(C)C)C[C@@H]3C)c12 [Compound 249, Isopropyl (S)-4-(7-(3,5-difluorophenyl)-5-(3-methylpyrazin-2-yl)-7H-pyrrolo[2,3-d]pyrimidin-4-yl)-3-methylpiperazine-1-carboxylate]
5.70 to 6.30 | 6.30 to 7.00 | < 5.70 | Cc1nccnc1-c1cn(-c2cc(F)cc(F)c2)c2ncnc(N3CCN(C(=O)OC(C)(C)CF)[C@H](C)C3)c12 [Compound 250, 1-fluoro-2-methylpropan-2-yl (R)-4-(7-(3,5-difluorophenyl)-5-(3-methylpyrazin-2-yl)-7H-pyrrolo[2,3-d]pyrimidin-4-yl)-2-methylpiperazine-1-carboxylate]
< 5.70 | 5.70 to 6.30 | < 5.70 | Cc1nccnc1-c1cn(-c2cc(F)cc(F)c2)c2ncnc(N3CCN(C(=O)OC(C)C)[C@H](C)C3)c12 [Compound 251, isopropyl (R)-4-(7-(3,5-difluorophenyl)-5-(3-methylpyrazin-2-yl)-7H-pyrrolo[2,3-d]pyrimidin-4-yl)-2-methylpiperazine-1-carboxylate]
6.30 to 7.00 | 6.30 to 7.00 | < 5.70 | CC(C)OC(=O)N1C[C@H](C)N(c2ncnc3c2c(-c2ccccc2F)cn3-c2cnn(C)c2)C[C@H]1C [Compound 252, isopropyl (2R,5S)-4-(5-(2-fluorophenyl)-7-(1-methyl-1H-pyrazol-4-yl)-7H-pyrrolo[2,3-d]pyrimidin-4-yl)-2,5-dimethylpiperazine-1-carboxylate]
> 7.00 | > 7.00 | 6.30 to 7.00 | C[C@H]1CN(C(=O)OC(C)(C)C)CCN1c1ncnc2c1c(N1CCCC1)cn2-c1cc(F)cc(F)c1 [Compound 253, tert-butyl (S)-4-(7-(3,5-difluorophenyl)-5-(pyrrolidin-1-yl)-7H-pyrrolo[2,3-d]pyrimidin-4-yl)-3-methylpiperazine-1-carboxylate]
6.30 to 7.00 | 6.30 to 7.00 | < 5.70 | C[C@@H]1CN(c2ncnc3c2c(-c2ccccc2F)cn3-c2cnn(C)c2)[C@@H](C)CN1C(=O)OCC(F)(F)F [Compound 254, 2,2,2-trifluoroethyl (2R,5S)-4-(5-(2-fluorophenyl)-7-(1-methyl-1H-pyrazol-4-yl)-7H-pyrrolo[2,3-d]pyrimidin-4-yl)-2,5-dimethylpiperazine-1-carboxylate]
